According to US12180226B2, “Spirotricycle RIPK1 inhibitors and methods of uses thereof” (Merck Sharp & Dohme LLC, priority 2021, dated 2024):
Where a name gives a salt, the structure may show the parent alone.

These compounds were tested against RIPK1 (recombinant GST-RIPK1 kinase domain, residues 1-327) (Homo sapiens (Human), UniProt Q13546) (assay: RIPK1-ADP-Glo Enzymatic Assay). Conditions: ADP-Glo; 25 nM GST-RIPK1, 300 μM ATP; assay lower limit ~25 nM; read-out: RIPK1 V0 Ec50.
Format: biochemical
How it was run: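 Luminescent ADP-Glo readout of ATP-to-ADP conversion. Conditions: 25 nM enzyme, 300 μM ATP, 3 μM dephospho-MBP, pH 7.3 HEPES buffer with 20 mM MgCl2; 30 min compound pre-incubation, 150 min reaction. EC50 via four-parameter sigmoidal regression; assay floor ~25 nM.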

Sequence of RIPK1 (recombinant GST-RIPK1 kinase domain, residues 1-327) (Q13546 1-327): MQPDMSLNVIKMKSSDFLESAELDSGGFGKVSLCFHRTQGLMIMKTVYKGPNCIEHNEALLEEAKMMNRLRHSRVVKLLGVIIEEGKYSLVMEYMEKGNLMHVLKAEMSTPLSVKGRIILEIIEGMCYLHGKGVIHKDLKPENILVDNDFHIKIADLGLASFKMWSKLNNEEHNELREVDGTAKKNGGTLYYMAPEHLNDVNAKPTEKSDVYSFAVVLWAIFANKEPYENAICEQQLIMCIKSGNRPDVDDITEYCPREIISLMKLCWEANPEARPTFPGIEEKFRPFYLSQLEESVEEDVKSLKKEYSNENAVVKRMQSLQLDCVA

Row | EC50 [nM] | Compound
1 | 43.8 | O=C(c1ccn2ncnc2n1)N1CCC2(CC1)O[C@@H]1CC[C@@H](c3cc(F)cc(F)c3)N1C2=O [Example 6.87, (5′S,7a′R)-5′-(3,5-difluorophenyl)-1-([1,2,4]triazolo[1,5-a]pyrimidine-5-carbonyl)tetrahydro-3′H-spiro[piperidine-4,2′-pyrrolo[2,1-b] [1,3]oxazol]-3′-one]
2 | 36.9 | O=C(c1ccccc1Cl)N1CCC2(CC1)O[C@@H]1CC[C@@H](c3cc(F)cc(F)c3)N1C2=O [Example 6.78, (5′S,7a′R)-1-(2-chloro-benzene-1-carbonyl)-5′-(3,5-difluorophen-yl)tetrahydro-3′H-spiro[piperidine-4,2′-pyrrolo[2,1-b][1,3]-oxazol]-3′-one]
3 | < 25 | CC1CN(C(=O)c2ccccc2)CCC12O[C@@H]1CC[C@@H](c3cc(F)cc(F)c3)N1C2=O (stereo partly drawn) [Example 6.110, (5′S,7a′R)-1-(benzene-carbonyl)-5′-(3,5-difluorophenyl)-3-methyltetrahydro-3′H-spiro[piperidine-4,2′-pyrrolo[2,1-b][1,3]-oxazol]-3′-one]
4 | 215 | O=C1N2[C@@H](CC[C@H]2c2ccccc2)OC12CCN(c1ccc(=O)n(CC3CC3)n1)CC2 [Example 11.8, (5′S,7a′R)-1-[1-(cyclopropylmethyl)-6-oxo-1,6-dihydropyridazin-3-yl]-5′-phenyltetrahydro-3′H-spiro[piperidine-4,2′-pyrrolo[2,1-b][1,3]oxazol]-3′-one]
5 | < 25 | O=C(c1cccc(Cl)c1F)N1CCC2(CC1)O[C@@H]1CC[C@@H](c3cc(F)cc(F)c3)N1C2=O [Example 5.60, (5′S,7a′R)-1-(3-chloro-2-fluorobenzoyl)-5′-(3,5-difluorophenyl)tetrahydro-3′H-spiro[piperidine-4,2′-pyrrolo[2,1-b]oxazol]-3′-one]
6 | 934 | N#Cc1cccnc1C(=O)N1CCC2(CC1)O[C@@H]1CC[C@@H](c3cc(F)cc(F)c3)N1C2=O [Example 6.103, 2-[(5′S,7a′R)-5′-(3,5-difluorophenyl)-3 oxotetrahydro-1H,3′H-spiro[piperidine-4,2′-pyrrolo[2,1-b][1,3]-oxazole]-1-carbonyl]-pyridine-3-carbonitrile]
7 | 31.9 | O=C(c1ccnc(C(F)(F)F)c1F)N1CCC2(CC1)O[C@@H]1CC[C@@H](c3cc(F)cc(F)c3)N1C2=O [Example 6.74, (5′S,7a′R)-5′-(3,5-difluorophenyl)-1-[3-fluoro-2-(trifluoro-methyl)pyridine-4-carbonyl]tetrahydro-3′H-spiro[piperidine-4,2′-pyrrolo[2,1-b] [1,3]oxazol]-3′-one]
8 | 487 | O=C1N2[C@@H](CC[C@H]2c2cc(F)cc(F)c2)OC12CCN(c1nccn3cncc13)CC2 [Example 13.14, (5′S,7a′R)-5′-(3,5-difluorophenyl)-1-(imidazo[1,5-a]pyrazin-8-yl)tetrahydro-3′H-spiro[piperidine-4,2′-pyrrolo[2,1-b]oxazol]-3′-one, TFA salt]
9 | 30.8 | O=C(c1cnn2ccccc12)N1CCC2(CC1)O[C@@H]1CC[C@@H](c3cc(F)cc(F)c3)N1C2=O [Example 5.72, (5′S,7a′R)-5′-(3,5-difluoro-phenyl)-1-(pyrazolo[1,5-a]-pyridine-3-carbonyl)tetra-hydro-3′H-spiro[piperidine-4,2′-pyrrolo[2,1-b]oxazol]-3′-one]
10 | 56 | O=C1N2[C@@H](CC[C@H]2c2cc(F)cc(F)c2)OC12CCN(c1cncc3ncnn13)CC2 [Example 13.4, (5′S,7a′R)-1-([1,2,4]triazolo[1,5-a]pyrazin-5-yl)-5′-(3,5-difluorophenyl)tetrahydro-3′H-spiro[piperidine-4,2′-pyrrolo[2,1-b]oxazol]-3′-one, TFA salt]
11 | 328 | N#Cc1ccccc1C(=O)N1CCC2(CC1)O[C@@H]1CC[C@@H](c3ccccc3)N1C2=O [Example 6.147, 2-[(5′S,7a′R)-3′-oxo-5′-phenyltetrahydro-1H,3′H-spiro[piperi-dine-4,2′-pyrrolo[2,1-b][1,3]oxazole]-1-carbonyl]benzonitrile]
12 | 33.1 | O=C(c1cscn1)N1CCC2(CC1)O[C@@H]1CC[C@@H](c3cc(F)cc(F)c3)N1C2=O [Example 5.44]
13 | < 25 | N#Cc1cc(C(=O)N2CCC3(CC2)O[C@@H]2CC[C@@H](c4ccccc4)N2C3=O)ccc1F [Example 6.138, 2-fluoro-5-[(5′S,7a′R)-3′-oxo-5′-phenyl-tetrahydro-1H,3′H-spiro[piperidine-4,2′-pyrrolo[2,1-b][1,3]-oxazole]-1-carbonyl]-benzonitrile]
14 | 69.2 | Cc1ccccc1C(=O)N1CCC2(CC1)O[C@@H]1CC[C@@H](c3cc(F)cc(F)c3)N1C2=O [Example 6.11, (5′S,7a′R)-5′-(3,5-difluorophenyl)-1-(2-methybenzene-1-carbonyl)tetrahydro-3′H-spiro[piperidine-4,2′-pyrrolo[2,1-b] [1,3]oxazol]-3′-one]
15 | < 25 | O=C(c1cccc(F)c1)N1CCC2(CC1)O[C@@H]1CC[C@@H](c3cccc(F)c3)N1C2=O [Example 6.116, (5′S,7a′R)-1-(3-fluoro-benzene-1-carbonyl)-5′-(3-fluorophenyl)-tetrahydro-3′H-spiro [piperidine-4,2′-pyrrolo[2,1-b][1,3]oxazol]-3′-one]
16 | 191 | COc1ccnc(N2CCC3(CC2)O[C@@H]2CC[C@@H](c4ccccc4)N2C3=O)c1 [Example 11.30, (5′S,7a′R)-1-(4-methoxypyridin-2-yl)-5′-phenyltetrahydro-3′H-spiro[piperidine-4,2′-pyrrolo[2,1-b][1,3]oxazol]-3′-one]

The remaining lines, values behind:

Row | Compound | EC50 [nM]
17 | N#Cc1ccc(N2CCC3(CC2)O[C@@H]2CC[C@@H](c4ccccc4)N2C3=O)n2ncc(Br)c12 [Example 4.183, 3-bromo-7-[(5′S,7a′R)-3′-oxo-5′-phenyltetrahydro-1H,3′H-spiro[piperidine-4,2′-pyrrolo[2,1-b] [1,3]oxazol]-1-yl]pyrazolo[1,5-a] pyridine-4-carbonitrile] | < 25
18 | N#Cc1cnc(N2CC3(C2)O[C@@H]2CC[C@@H](c4ccccc4F)N2C3=O)nc1 [Example 4.119, 2-((5′S,7a′R)-5′-(2-fluorophenyl)-3′-oxotetrahydro-3′H-spiro[azetidine-3,2′-pyrrolo[2,1-b]oxazol]-1-yl)pyrimidine-5-carbonitrile] | 537
19 | CC1CN(c2ccnc3ccnn23)CCC12O[C@@H]1CC[C@@H](c3ccccc3)N1C2=O (stereo partly drawn) [Example 4.238, (4R,5′S,7a′R)-3-methyl-5′-phenyl-1-(pyrazolo[1,5-a]pyrimidin-7-yl)tetrahydro-3′H-spiro[piperidine-4,2′-pyrrolo[2,1-b] [1,3]oxazol]-3′-one] | < 25
20 | O=C1N2[C@@H](CC[C@H]2c2cc(F)cc(F)c2)OC12CN(c1ccnc3c(F)cnn13)C2 [Example 4.117, (5′S,7a′R)-5′-(3,5-difluorophenyl)-1-(3-fluoropyrazolo[1,5-a]pyrimidin-7-yl)tetrahydro-3′H-spiro[azetidine-3,2′-pyrrolo[2,1-b]oxazol]-3′-one] | < 25
21 | CSc1cc(N2CCC3(CC2)O[C@@H]2CC[C@@H](c4cc(F)cc(F)c4)N2C3=O)ncc1C#N [Example 4.71, 6-[(5′S,7a′R)-5′-(3,5-difluorophenyl)-3′-oxotetrahydro-1H,3′H-spiro[piperidine-4,2′-pyrrolo[2,1-b] [1,3]oxazol]-1-yl]-4-(methylsulfanyl)pyridine-3-carbonitrile] | 30.3
22 | N#Cc1ccnc(N2CCC3(CC2)O[C@@H]2CC[C@@H](c4cc(F)cc(F)c4)N2C3=O)c1 [Example 4.8, 2-[(5′S,7a′R)-5′-(3,5-difluorophenyl)-3′-oxotetrahydro-1H,3′H-spiro[piperidine-4,2′-pyrrolo[2,1-b] [1,3]oxazol]-1-yl]pyridine-4-carbonitrile] | < 25
23 | O=C1N2[C@@H](CC[C@H]2c2cc(F)cc(F)c2)OC12CCN(c1ncc(Cl)cn1)CC2 [Example 4.63, (5′S,7a′R)-1-(5-chloropyrimidin-2-yl)-5′-(3,5-difluorophenyl)tetrahydro-3′H-spiro[piperidine-4,2′-pyrrolo[2,1-b] [1,3]oxazol]-3′-one] | 48.6
24 | N#Cc1ccc(N2CCC3(CC2)O[C@@H]2CC[C@@H](c4cccc(F)c4)N2C3=O)c(F)c1 [Example 4.53, 3-fluoro-4-[(5′S,7a′R)-5′-(3-fluorophenyl)-3′-oxotetrahydro-1H,3′H-spiro[piperidine-4,2′-pyrrolo[2,1-b] [1,3]oxazol]-1-yl]benzonitrile] | < 25
25 | O=C(c1ccccc1)N1CCC2(O[C@@H]3CC[C@@H](c4ccccc4)N3C2=O)C(F)C1 (single isomer, unassigned) [Example 2.2, (3[R or S],4[S or R], 5′S,7a′R)-1-benzoyl-3-fluoro-5′-phenyltetrahydro-3′H-spiro[piperidine-4,2′-pyrrolo[2,1-b]oxazol]-3′-one] | < 25
26 | Cc1cn(-c2cc(N3CCC4(CC3)O[C@@H]3CC[C@@H](c5ccccc5)N3C4=O)ncn2)cn1 [Example 4.172, (5′S,7a′R)-1-[6-(4-methyl-1H-imidazol-1-yl)pyrimidin-4-yl]-5′-phenyltetrahydro-3′H-spiro[piperidine-4,2′-pyrrolo[2,1-b] [1,3]oxazol]-3′-one] | 25.2
27 | O=C1N2[C@@H](CC[C@H]2c2cc(F)cc(F)c2)OC12CCN(c1cccc3ccnn13)CC2 [Example 15.2, (5′S,7a′R)-5′-(3,5-difluorophenyl)-1-(pyrazolo[1,5-a]pyridin-7-yl)tetrahydro-3′H-spiro[piperidine-4,2′-pyrrolo[2,1-b]oxazol]-3′-one, TFA] | < 25
28 | Cc1ccc(F)c(C(=O)N2CCC3(CC2)O[C@@H]2CC[C@@H](c4ccccc4F)N2C3=O)c1 [Example 1.17, (5′S,7a′R)-1-(2-fluoro-5-methylbenzoyl)-5′-(2-fluorophenyl)tetrahydro-3′H-spiro[piperidine-4,2′-pyrrolo[2,1-b]oxazol]-3′-one] | < 25
